Experimental data reported in PubChem BioAssay (NCI).
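Method: 48-hour compound exposure of cells in 96-well plates, five concentrations, linear interpolation of endpoints. At the GI50, growth is halved. TGI is the concentration that stops growth completely.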

Experiments:
Experiment in all cases: NCI tumour cell line growth inhibition, 48 h
SF-539 CNS = test system: SF-539 CNS
UACC-257 melanoma = test system: UACC-257 melanoma
UACC-62 melanoma = test system: UACC-62 melanoma
DU-145 prostate = test system: DU-145 prostate
OVCAR-8 ovarian = test system: OVCAR-8 ovarian
SF-268 CNS = test system: SF-268 CNS
SW-620 colon = test system: SW-620 colon
U251 CNS = test system: U251 CNS
SR leukemia = test system: SR leukemia
OVCAR-5 ovarian = test system: OVCAR-5 ovarian
TK-10 renal = test system: TK-10 renal
A549 NSCLC = test system: A549 NSCLC
RXF 393 renal = test system: RXF 393 renal
RPMI-8226 leukemia = test system: RPMI-8226 leukemia
HCT-116 colon = test system: HCT-116 colon
MOLT-4 leukemia = test system: MOLT-4 leukemia
HCC-2998 colon = test system: HCC-2998 colon
SK-MEL-28 melanoma = test system: SK-MEL-28 melanoma
EKVX NSCLC = test system: EKVX NSCLC
CAKI-1 renal = test system: CAKI-1 renal
IGROV1 ovarian = test system: IGROV1 ovarian
SNB-75 CNS = test system: SNB-75 CNS
LOX IMVI melanoma = test system: LOX IMVI melanoma
MALME-3M melanoma = test system: MALME-3M melanoma
SN12C renal = test system: SN12C renal
NCI-H522 lung = test system: NCI-H522 lung
HOP-92 NSCLC = test system: HOP-92 NSCLC
NCI-H460 lung = test system: NCI-H460 lung
OVCAR-3 ovarian = test system: OVCAR-3 ovarian
MDA-MB-231 breast = test system: MDA-MB-231 breast
HS 578T breast = test system: HS 578T breast
HCT-15 colon = test system: HCT-15 colon
HOP-62 NSCLC = test system: HOP-62 NSCLC
786-0 renal = test system: 786-0 renal
SF-295 CNS = test system: SF-295 CNS
ACHN renal = test system: ACHN renal
T-47D breast = test system: T-47D breast
MDA-MB-435 = test system: MDA-MB-435
M14 melanoma = test system: M14 melanoma
BT-549 breast = test system: BT-549 breast
NCI/ADR-RES ovarian = test system: NCI/ADR-RES ovarian
PC-3 prostate = test system: PC-3 prostate
SK-MEL-5 melanoma = test system: SK-MEL-5 melanoma
OVCAR-4 ovarian = test system: OVCAR-4 ovarian
SK-MEL-2 melanoma = test system: SK-MEL-2 melanoma
MCF7 breast = test system: MCF7 breast
SNB-19 CNS = test system: SNB-19 CNS
CCRF-CEM leukemia = test system: CCRF-CEM leukemia
HL-60(TB) leukemia = test system: HL-60(TB) leukemia
KM12 colon = test system: KM12 colon
NCI-H23 lung = test system: NCI-H23 lung

Question: Which results are given for `COc1ccc(CNC(=O)COc2ccc(/C=N/Nc3nc4ccccc4s3)cc2)cc1`?
Answer: GI50 (SF-539 CNS): 1.65 µM; TGI (SF-539 CNS): 4.18 µM; GI50 (UACC-257 melanoma): 4.2 µM; TGI (UACC-257 melanoma): > 100 µM; GI50 (UACC-62 melanoma): 2.32 µM; TGI (UACC-62 melanoma): 11.8 µM; GI50 (DU-145 prostate): 3.8 µM; TGI (DU-145 prostate): > 100 µM; GI50 (OVCAR-8 ovarian): 3.93 µM; TGI (OVCAR-8 ovarian): > 100 µM; GI50 (SF-268 CNS): 3.04 µM; TGI (SF-268 CNS): 12.2 µM; GI50 (SW-620 colon): 5.23 µM; TGI (SW-620 colon): > 100 µM; GI50 (U251 CNS): 1.73 µM; TGI (U251 CNS): 5.43 µM; GI50 (SR leukemia): 3.05 µM; TGI (SR leukemia): > 100 µM; GI50 (OVCAR-5 ovarian): 4.57 µM; TGI (OVCAR-5 ovarian): > 100 µM; GI50 (TK-10 renal): 3.49 µM; TGI (TK-10 renal): 16.3 µM; GI50 (A549 NSCLC): 3.12 µM; TGI (A549 NSCLC): 87.6 µM; GI50 (RXF 393 renal): 1.75 µM; TGI (RXF 393 renal): 3.76 µM; GI50 (RPMI-8226 leukemia): 2.13 µM; TGI (RPMI-8226 leukemia): > 100 µM; GI50 (HCT-116 colon): 2.25 µM; TGI (HCT-116 colon): 6.76 µM; GI50 (MOLT-4 leukemia): > 100 µM; TGI (MOLT-4 leukemia): > 100 µM; GI50 (HCC-2998 colon): 5.37 µM; TGI (HCC-2998 colon): > 100 µM; GI50 (SK-MEL-28 melanoma): 4.35 µM; TGI (SK-MEL-28 melanoma): > 100 µM; GI50 (EKVX NSCLC): 2.98 µM; TGI (EKVX NSCLC): 32.5 µM; GI50 (CAKI-1 renal): 1.98 µM; TGI (CAKI-1 renal): 5.21 µM; GI50 (IGROV1 ovarian): 1.69 µM; TGI (IGROV1 ovarian): 6.73 µM; GI50 (SNB-75 CNS): 1.07 µM; TGI (SNB-75 CNS): 3.29 µM; GI50 (LOX IMVI melanoma): 3.04 µM; TGI (LOX IMVI melanoma): > 100 µM; GI50 (MALME-3M melanoma): 1.55 µM; TGI (MALME-3M melanoma): 3.89 µM; GI50 (SN12C renal): 2.84 µM; TGI (SN12C renal): > 100 µM; GI50 (NCI-H522 lung): 2.44 µM; TGI (NCI-H522 lung): 9.63 µM; GI50 (HOP-92 NSCLC): 1.4 µM; TGI (HOP-92 NSCLC): 4.41 µM; GI50 (NCI-H460 lung): 2.65 µM; TGI (NCI-H460 lung): 7.3 µM; GI50 (OVCAR-3 ovarian): 2.1 µM; TGI (OVCAR-3 ovarian): 5.42 µM; GI50 (MDA-MB-231 breast): 1.86 µM; TGI (MDA-MB-231 breast): 4.45 µM; GI50 (HS 578T breast): 2.24 µM; TGI (HS 578T breast): 19.1 µM; GI50 (HCT-15 colon): 3.44 µM; TGI (HCT-15 colon): > 100 µM; GI50 (HOP-62 NSCLC): 2.22 µM; TGI (HOP-62 NSCLC): 11.6 µM; GI50 (786-0 renal): 2.37 µM; TGI (786-0 renal): 5.9 µM; GI50 (SF-295 CNS): 3.25 µM; TGI (SF-295 CNS): 11.2 µM; GI50 (ACHN renal): 1.67 µM; TGI (ACHN renal): 3.42 µM; GI50 (T-47D breast): 1.69 µM; TGI (T-47D breast): 5.36 µM; GI50 (MDA-MB-435): 3.47 µM; TGI (MDA-MB-435): > 100 µM; GI50 (M14 melanoma): 4.69 µM; TGI (M14 melanoma): > 100 µM; GI50 (BT-549 breast): 1.61 µM; TGI (BT-549 breast): 3.41 µM; GI50 (NCI/ADR-RES ovarian): 3.12 µM; TGI (NCI/ADR-RES ovarian): 19.4 µM; GI50 (PC-3 prostate): 3.35 µM; TGI (PC-3 prostate): > 100 µM; GI50 (SK-MEL-5 melanoma): 2.01 µM; TGI (SK-MEL-5 melanoma): 5.06 µM; GI50 (OVCAR-4 ovarian): 1.56 µM; TGI (OVCAR-4 ovarian): 5 µM; GI50 (SK-MEL-2 melanoma): 3.84 µM; TGI (SK-MEL-2 melanoma): 16 µM; GI50 (MCF7 breast): 3.52 µM; TGI (MCF7 breast): 27.5 µM; GI50 (SNB-19 CNS): 2.69 µM; TGI (SNB-19 CNS): 12.6 µM; GI50 (CCRF-CEM leukemia): > 100 µM; TGI (CCRF-CEM leukemia): > 100 µM; GI50 (HL-60(TB) leukemia): > 100 µM; TGI (HL-60(TB) leukemia): > 100 µM; GI50 (KM12 colon): 2.51 µM; TGI (KM12 colon): > 100 µM; GI50 (NCI-H23 lung): 3.05 µM; TGI (NCI-H23 lung): 12.6 µM
